Data taken from patent publication US10004701B2, “Methods and compositions for treating infection” (UNIVERSITY OF ROCHESTER, priority 2012, dated 2018).
Structures can show the parent of a compound that is named as a salt. Where two headings read alike, the source gives them in different places.

Tests used:
Assay in all cases: AK assay 384-well format, Prestwick library screening
E. faecium = assay type: cell-based, Enterococcus faecium; conditions: for fold induction at 50 µM: Enterococcus faecium, 3 h
[1] = system: S. aureus strain USA300-0114; assay type: cell-based, Staphylococcus aureus; conditions: for fold induction at 50 µM: Staphylococcus aureus, USA300, 3 h
K. pneumoniae = assay type: cell-based, Klebsiella pneumoniae; conditions: for fold induction at 50 µM: Klebsiella pneumoniae, 3 h
[2] = system: A. baumannii strain 98-37-09; assay type: cell-based, Acinetobacter baumannii; conditions: for fold induction at 50 µM: Acinetobacter baumannii, 983709, 3 h
P. aeruginosa = assay type: cell-based, Pseudomonas aeruginosa; conditions: for fold induction at 50 µM: Pseudomonas aeruginosa, 3 h
E. coli = assay type: cell-based, Escherichia coli; conditions: for fold induction at 50 µM: Escherichia coli, 3 h
E. cloacae = assay type: cell-based, Enterobacter cloacae; conditions: Enterobacter cloacae, 3 h; planktonic E. cloacae; 50 μM final drug concentration; cutoff for positive-scoring molecules 3-fold increase; read-out: AK-based Prestwick Library Screening Results, E. cloacae (increase in extracellular AK activity)
[3] = planktonic E. coli, 50 μM final drug concentration, 384-well, […]

Q: For `CN1[C@@H]2CC[C@H]1C[C@@H](OC(=O)C(CO)c1ccccc1)C2` (stereo partly shown) [Atropine sulfate monohydrate], which fold induction at 50 µM (E. faecium; planktonic E. faecium, 50 μM final drug concentration, […], read-out: AK-based Prestwick Library Screening Results, E. faecium (increase in extracellular AK activity)) is on record?
A: 0.8

Q: And the fold induction at 50 µM ([1]; planktonic S. aureus, 50 μM final drug concentration, […], read-out: AK-based Prestwick Library Screening Results, S. aureus (increase in extracellular AK activity))?
A: 0.5

Q: What about the fold induction at 50 µM (K. pneumoniae; planktonic K. pneumoniae, 50 μM final drug concentration, […], read-out: AK-based Prestwick Library Screening Results, K. pneumoniae (increase in extracellular AK activity)) of the same compound?
A: 0.5

Q: And the fold induction at 50 µM ([2]; planktonic A. baumannii, 50 μM final drug concentration, […], read-out: AK-based Prestwick Library Screening Results, A. baumannii (increase in extracellular AK activity))?
A: 0.5

Q: What about the fold induction at 50 µM (P. aeruginosa; planktonic P. aeruginosa, 50 μM final drug concentration, […], read-out: AK-based Prestwick Library Screening Results, P. aeruginosa (increase in extracellular AK activity)) of the same compound?
A: 0.5

Q: What about the fold induction at 50 µM (E. coli; planktonic E. coli, 50 μM final drug concentration, […], read-out: AK-based Prestwick Library Screening Results, E. coli (increase in extracellular AK activity)) of the same compound?
A: 0.6

Q: Which results are given for `CCOC(=O)c1cncn1[C@H](C)c1ccccc1` [Etomidate]?
A: fold induction at 50 µM (E. faecium; 50 μM final drug concentration, […], read-out: AK-based Prestwick Library Screening Results, E. faecium (fold increase in extracellular AK activity)): 0.9; fold induction at 50 µM ([1]; 50 μM final drug concentration, […], read-out: AK-based Prestwick Library Screening Results, S. aureus (fold increase in extracellular AK activity)): 0.3; fold induction at 50 µM (K. pneumoniae; 50 μM final drug concentration, […], read-out: AK-based Prestwick Library Screening Results, K. pneumoniae (fold increase in extracellular AK activity)): 0.4; fold induction at 50 µM ([2]; 50 μM final drug concentration, […], read-out: AK-based Prestwick Library Screening Results, A. baumannii (fold increase in extracellular AK activity)): 0.3; fold induction at 50 µM (P. aeruginosa; 50 μM final drug concentration, […], read-out: AK-based Prestwick Library Screening Results, P. aeruginosa (fold increase in extracellular AK activity)): 0.4; fold induction at 50 µM (E. coli; 50 μM final drug concentration, […], read-out: AK-based Prestwick Library Screening Results, E. coli (fold increase in extracellular AK activity)): 0.5

Q: Which results are given for `CN1[C@@H]2CC[C@H]1C[C@@H](OC(=O)[C@H](CO)c1ccccc1)C2` [Hyoscyamine (L)]?
A: AK-based Prestwick Library Screening Results: E. faecium (increase in extracellular AK activity) (E. faecium; planktonic E. faecium, 50 μM final drug concentration, 384-well, […]): 1.0; AK-based Prestwick Library Screening Results: S. aureus (increase in extracellular AK activity) ([1]; planktonic S. aureus, 50 μM final drug concentration, 384-well, […]): 1.2; AK-based Prestwick Library Screening Results: K. pneumoniae (increase in extracellular AK activity) (K. pneumoniae; planktonic K. pneumoniae, 50 μM final drug concentration, 384-well, […]): 1.2; AK-based Prestwick Library Screening Results: A. baumannii (increase in extracellular AK activity) ([2]; planktonic A. baumannii, 50 μM final drug concentration, 384-well, […]): 1.4; AK-based Prestwick Library Screening Results: P. aeruginosa (increase in extracellular AK activity) (P. aeruginosa; planktonic P. aeruginosa, 50 μM final drug concentration, 384-well, […]): 1.2; AK-based Prestwick Library Screening Results: E. coli (increase in extracellular AK activity) (E. coli; [3]): 1.3

Q: What does the source list for `CN(C)CCCN1c2ccccc2CCc2ccccc21` [Imipramine hydrochloride]?
A: fold induction at 50 µM (E. faecium; planktonic E. faecium, 50 μM final drug concentration, 384-well, cutoff for positive-scoring molecules 3-fold increase, read-out: AK-based Prestwick Library Screening Results: E. faecium (increase in extracellular AK activity)): 0.9; fold induction at 50 µM ([1]; planktonic S. aureus, 50 μM final drug concentration, 384-well, cutoff for positive-scoring molecules 3-fold increase, read-out: AK-based Prestwick Library Screening Results: S. aureus (increase in extracellular AK activity)): 1.2; fold induction at 50 µM (K. pneumoniae; planktonic K. pneumoniae, 50 μM final drug concentration, 384-well, cutoff for positive-scoring molecules 3-fold increase, read-out: AK-based Prestwick Library Screening Results: K. pneumoniae (increase in extracellular AK activity)): 1; fold induction at 50 µM ([2]; planktonic A. baumannii, 50 μM final drug concentration, 384-well, cutoff for positive-scoring molecules 3-fold increase, read-out: AK-based Prestwick Library Screening Results: A. baumannii (increase in extracellular AK activity)): 1.3; fold induction at 50 µM (P. aeruginosa; planktonic P. aeruginosa, 50 μM final drug concentration, 384-well, cutoff for positive-scoring molecules 3-fold increase, read-out: AK-based Prestwick Library Screening Results: P. aeruginosa (increase in extracellular AK activity)): 1.1; fold induction at 50 µM (E. coli; planktonic E. coli, 50 μM final drug concentration, 384-well, cutoff for positive-scoring molecules 3-fold increase, read-out: AK-based Prestwick Library Screening Results: E. coli (increase in extracellular AK activity)): 1.2

Q: Which fold induction at 50 µM (E. faecium; read-out: AK-based Prestwick Library Screening Results, E. faecium (increase in extracellular AK activity)) does the source give for `O=C1CC[C@@]2(O)[C@H]3Cc4ccc(O)c5c4[C@@]2(CCN3CC2CC2)[C@H]1O5` [Naltrexone hydrochloride dihydrate] here?
A: 1

Q: And the fold induction at 50 µM ([1]; read-out: AK-based Prestwick Library Screening Results, S. aureus (increase in extracellular AK activity))?
A: 0.7

Q: And the fold induction at 50 µM (K. pneumoniae; read-out: AK-based Prestwick Library Screening Results, K. pneumoniae (increase in extracellular AK activity))?
A: 0.6

Q: What about the fold induction at 50 µM ([2]; read-out: AK-based Prestwick Library Screening Results, A. baumannii (increase in extracellular AK activity)) of the same compound?
A: 0.9

Q: And the fold induction at 50 µM (P. aeruginosa; read-out: AK-based Prestwick Library Screening Results, P. aeruginosa (increase in extracellular AK activity))?
A: 0.8

Q: What about the fold induction at 50 µM (E. coli; read-out: AK-based Prestwick Library Screening Results, E. coli (increase in extracellular AK activity)) of the same compound?
A: 0.9

Q: With `COc1cc2nc(N3CCN(C(=O)c4ccco4)CC3)nc(N)c2cc1OC` [Prazosin hydrochloride] as the compound, how does the fold induction at 50 µM (E. faecium; 50 μM final drug concentration, cutoff for positive-scoring molecules 3-fold increase, read-out: AK-based Prestwick Library Screening Results, E. faecium (fold increase in extracellular AK activity)) read?
A: 1.1

Q: And the fold induction at 50 µM ([1]; 50 μM final drug concentration, cutoff for positive-scoring molecules 3-fold increase, read-out: AK-based Prestwick Library Screening Results, S. aureus (fold increase in extracellular AK activity))?
A: 1.4

Q: And the fold induction at 50 µM (K. pneumoniae; 50 μM final drug concentration, cutoff for positive-scoring molecules 3-fold increase, read-out: AK-based Prestwick Library Screening Results, K. pneumoniae (fold increase in extracellular AK activity))?
A: 0.9

Q: And the fold induction at 50 µM ([2]; 50 μM final drug concentration, cutoff for positive-scoring molecules 3-fold increase, read-out: AK-based Prestwick Library Screening Results, A. baumannii (fold increase in extracellular AK activity))?
A: 1.4

Q: And the fold induction at 50 µM (P. aeruginosa; 50 μM final drug concentration, cutoff for positive-scoring molecules 3-fold increase, read-out: AK-based Prestwick Library Screening Results, P. aeruginosa (fold increase in extracellular AK activity))?
A: 1.1

Q: What about the fold induction at 50 µM (E. coli; 50 μM final drug concentration, cutoff for positive-scoring molecules 3-fold increase, read-out: AK-based Prestwick Library Screening Results, E. coli (fold increase in extracellular AK activity)) of the same compound?
A: 1.2

Q: With `C=C[C@H]1C[N@@]2CC[C@H]1C[C@@H]2[C@@H](O)c1ccnc2ccc(OC)cc12` [Quinidine hydrochloride monohydrate] as the compound, how does the fold induction at 50 µM (E. faecium; 50 μM final drug concentration, 384-well format, […], read-out: AK-based Prestwick Library Screening Results, E. faecium (increase in extracellular AK activity)) read?
A: 1

Q: And the fold induction at 50 µM ([1]; 50 μM final drug concentration, 384-well format, […], read-out: AK-based Prestwick Library Screening Results, S. aureus (increase in extracellular AK activity))?
A: 0.9

Q: What about the fold induction at 50 µM (K. pneumoniae; 50 μM final drug concentration, 384-well format, […], read-out: AK-based Prestwick Library Screening Results, K. pneumoniae (increase in extracellular AK activity)) of the same compound?
A: 0.8

Q: And the fold induction at 50 µM ([2]; 50 μM final drug concentration, 384-well format, […], read-out: AK-based Prestwick Library Screening Results, A. baumannii (increase in extracellular AK activity))?
A: 0.9

Q: And the fold induction at 50 µM (P. aeruginosa; 50 μM final drug concentration, 384-well format, […], read-out: AK-based Prestwick Library Screening Results, P. aeruginosa (increase in extracellular AK activity))?
A: 0.9

Q: What about the fold induction at 50 µM (E. coli; 50 μM final drug concentration, 384-well format, […], read-out: AK-based Prestwick Library Screening Results, E. coli (increase in extracellular AK activity)) of the same compound?
A: 1

Q: How did the fold induction at 50 µM (E. cloacae) turn out when `Oc1ccc(C=Cc2cc(O)cc(O)c2)cc1` [Resveratrol] was run?
A: 0.1

Q: `Clc1ccccc1CN1CCc2sccc2C1` [Ticlopidine hydrochloride] was tested. Which fold induction at 50 µM (E. faecium; 50 μM final drug concentration, 384-well format, cutoff for positive-scoring molecules 3-fold increase, read-out: AK-based Prestwick Library Screening Results, E. faecium (increase in extracellular AK activity)) did it give?
A: 1

Q: And the fold induction at 50 µM ([1]; 50 μM final drug concentration, 384-well format, cutoff for positive-scoring molecules 3-fold increase, read-out: AK-based Prestwick Library Screening Results, S. aureus (increase in extracellular AK activity))?
A: 0.8

Q: What about the fold induction at 50 µM (K. pneumoniae; 50 μM final drug concentration, 384-well format, cutoff for positive-scoring molecules 3-fold increase, read-out: AK-based Prestwick Library Screening Results, K. pneumoniae (increase in extracellular AK activity)) of the same compound?
A: 1

Q: And the fold induction at 50 µM ([2]; 50 μM final drug concentration, 384-well format, cutoff for positive-scoring molecules 3-fold increase, read-out: AK-based Prestwick Library Screening Results, A. baumannii (increase in extracellular AK activity))?
A: 1.1

Q: And the fold induction at 50 µM (P. aeruginosa; 50 μM final drug concentration, 384-well format, cutoff for positive-scoring molecules 3-fold increase, read-out: AK-based Prestwick Library Screening Results, P. aeruginosa (increase in extracellular AK activity))?
A: 1.1

Q: What about the fold induction at 50 µM (E. coli; 50 μM final drug concentration, 384-well format, cutoff for positive-scoring molecules 3-fold increase, read-out: AK-based Prestwick Library Screening Results, E. coli (increase in extracellular AK activity)) of the same compound?
A: 1.3

Q: `COc1ccc(CCN(C)CCCC(C#N)(c2ccc(OC)c(OC)c2)C(C)C)cc1OC.Cl` (stereo not shown) [Verapamyl hydrochloride] was tested. Which “AK-based Prestwick Library Screening Results: E. faecium (increase in extracellular AK activity)” value (E. faecium; planktonic E. faecium, 50 μM final drug concentration, 384-well, cutoff for positive-scoring molecules 3-fold increase) did it give?
A: 0.9

Q: What about the “AK-based Prestwick Library Screening Results: S. aureus (increase in extracellular AK activity)” value ([1]; planktonic S. aureus, 50 μM final drug concentration, 384-well, cutoff for positive-scoring molecules 3-fold increase) of the same compound?
A: 1.2

Q: What about the “AK-based Prestwick Library Screening Results: K. pneumoniae (increase in extracellular AK activity)” value (K. pneumoniae; planktonic K. pneumoniae, 50 μM final drug concentration, 384-well, cutoff for positive-scoring molecules 3-fold increase) of the same compound?
A: 0.9

Q: What about the “AK-based Prestwick Library Screening Results: A. baumannii (increase in extracellular AK activity)” value ([2]; planktonic A. baumannii, 50 μM final drug concentration, 384-well, cutoff for positive-scoring molecules 3-fold increase) of the same compound?
A: 1.5

Q: And the “AK-based Prestwick Library Screening Results: P. aeruginosa (increase in extracellular AK activity)” value (P. aeruginosa; planktonic P. aeruginosa, 50 μM final drug concentration, 384-well, cutoff for positive-scoring molecules 3-fold increase)?
A: 1.2

Q: What about the “AK-based Prestwick Library Screening Results: E. coli (increase in extracellular AK activity)” value (E. coli; [3]) of the same compound?
A: 1.3
